Source: PMC12339935 (Scientific Reports, 2025)
≈ marks a conversion by molar mass, not a printed value.

What was measured:
[1] = tested on: Staphylococcus aureus ATCC 29213; experiment: Antibacterial optical density microplate assay, S. aureus; assay type: cell-based; details: ATCC29213, read-out: Anti-Staphylococcus aureus (MIC, µg/ml)
[2] = tested on: Bacillus cereus ATCC 11778; experiment: Antibacterial optical density microplate assay, B. cereus; assay type: cell-based; details: for MIC: Bacillus cereus, ATCC11778, read-out: Anti-Bacillus cereus (MIC, µg/ml); for Anti-Bacillus cereus (MIC, µg/ml): B. cereus ATCC 11778, maximum tested concentration 50 µg/ml
[3] = tested on: NCI-H187 (human small-cell lung cancer) cells; details: maximum tested concentration 50 µg/ml
Vero cells = details: non-cancerous, maximum tested concentration 50 µg/ml
[4] = tested on: MCF-7 (human breast cancer) cells; details: maximum tested concentration 50 µg/ml
in vitro [5] = details: human
in vitro [6] = details: human; remark: listed apart in the source
Escherichia coli = details: literature value; cited from earlier work
Mycobacterium bovis = details: cited from earlier work
in vitro [7] = details: human (MCF-7, NCI-H187); African green monkey (Vero)
S. aureus = details: literature value; cited from earlier work

| SMILES | MIC [1] [µg/mL] | MIC [2] [µg/mL] | Anti-Bacillus cereus (MIC, µg/ml) [2] | Cytotoxicity (IC50, µM) Vero (Vero cells) | Cytotoxicity (IC50, µM) MCF-7 [4] | further results |
| --- | --- | --- | --- | --- | --- | --- |
| CO[C@H]1/C=C/O[C@@]2(C)Oc3c(C)c(O)c4c(O)c(c(/C=N/N5CCN(C)CC5)c(O)c4c3C2=O)NC(=O)/C(C)=C\C=C\[C@H](C)[C@H](O)[C@@H](C)[C@@H](O)[C@@H](C)[C@H](OC(C)=O)[C@@H]1C [Rifampicin, reference compound] | 0.04 to 0.56 (≈ 0.0486 to 0.68 µM) | 0.16 to 0.63 (≈ 0.194 to 0.766 µM) |  |  |  |  |
| COc1cccc(C(N)=O)c1O [Compound 6, 2-hydroxy-3-methoxybenzamide] |  |  | Inactive | Inactive | Inactive | Cytotoxicity (IC50, µM) NCI-H187 [3]: Inactive |
| Cc1c2ccncc2c(C)c2c1[nH]c1ccccc12 [Ellipticine, reference compound] |  |  |  |  |  | IC50 (in vitro [5]): 11.8 µM |
| CN[C@H](CC(C)C)C(=O)N[C@H]1C(=O)N[C@@H](CC(N)=O)C(=O)N[C@H]2C(=O)N[C@H]3C(=O)N[C@H](C(=O)N[C@H](C(=O)O)c4cc(O)cc(O)c4-c4cc3ccc4O)[C@H](O)c3ccc(c(Cl)c3)Oc3cc2cc(c3O[C@@H]2O[C@H](CO)[C@@H](O)[C@H](O)[C@H]2O[C@H]2C[C@](C)(N)[C@H](O)[C@H](C)O2)Oc2ccc(cc2Cl)[C@H]1O [Vancomycin, reference compound] | 4 (≈ 2.76 µM) | 1 to 2 (≈ 0.69 to 1.38 µM) |  |  |  |  |
| NC(=O)c1cccc(O)c1O [Compound 5, 2,3-dihydroxybenzamide] |  |  | Inactive | Inactive | Inactive | IC50 (in vitro [5]): 33.8 µM |
| Nc1cccc2c(=O)[nH]c(=O)oc12 [Compound 3, 8-amino-2 H-benz[e][1,3]oxazine-2,4(3 H)-dione] |  |  | Inactive | Inactive | Inactive | Cytotoxicity (IC50, µM) NCI-H187 [3]: Inactive |
| CC/C(=C(\c1ccccc1)c1ccc(OCCN(C)C)cc1)c1ccccc1 [Tamoxifen] |  |  |  |  |  | IC50 (in vitro [6]): 43.4 µM |
| CC(=O)Nc1c2sscc-2n(C)c1=O [Compound 1, thiolutin] | 3.13 (≈ 13.7 µM) | 1.56 (≈ 6.83 µM) |  |  |  | MIC against Escherichia coli (Escherichia coli): 6.25 µg/mL (≈ 27.4 µM); MIC against Mycobacterium bovis (Mycobacterium bovis): 0.313 µg/mL (≈ 1.37 µM); IC50 (in vitro [7]): 0.35 to 5.61 µM; MIC against S. aureus (S. aureus): 3.125 µg/mL (≈ 13.7 µM) |
